According to patent US3981997A, “Analgesic compositions comprising 1H- or respectively 2H-indazolone-3 (β-morpholino-alkoxy) compounds” (Temmler Werke-Vereinigte Chemische Fabriken, priority 1970, dated 1976):
Where two headings read alike, the source gives them in different places.

Experiments:
[1] = system: mouse; assay: animal or person; conditions: for ED50: Mus musculus; for Hot plate: relative therapeutic index (Th.I.) / Writhing Test: relative therapeutic index (Th.I.) / Writhing Test: mean effective dosage (ED50) / Hot plate: mean effective dosage (ED50): mouse; for Writhing Test: mean effective dosage (ED50) / Hot plate: mean effective dosage (ED50): relative to effective substance; for Writhing Test: mean effective dosage (ED50): 30 min; for Hot plate: mean effective dosage (ED50): 60 min
Method: The mice were kept without food during a period of 18 hours prior to the commencement of the tests. The test substances were administered orally in a methyl-cellulose-mucic (slime) by means of a probe. The observation period for the toxicity tests was 7 days. […] The pre-medication periods were 60 minutes in the first test arrangements. […] The percentage of the non-reacting animals was used to compute the ED50. […] Since the reaction times of the control group animals were log-normally distributed an analgetic effect was assumed in the treated animals if the logarithm of the reaction time of an animal was above the mean value range plus twice the standard deviation of the control group animals.

[2] = system: rat; assay: animal or person; format: in vivo
Method: According to Table II and with reference to the method described by A. HERZ (Naunyn-Schmiedeberg's Arch. Pharmakol., 242, 414, 1962) with rats by electrical stimulation of the root of the tail by means of continuously increasing the current a threshold of pain was determined which threshold was characterized in that the animals commenced to squeak in synchronism with the stimulation. When maintaining the selected test conditions these threshold values indicated as percent variations against the initial values prior to the treatment remained practically constant over a period of several hours in a test with control animals. Since these values are furthermore also normally distributed it is possible to quantitatively determine analgetic effects by determining the number of animals whose threshold values exceed during a test run the range defined by the mean value plus twice the standard deviation.
To determine the mean effective dosage ED50) determinations of the threshold of pain were made in 30 minute intervals with groups of 12 female rats each, each rat having a body weight from 160 to 360 grams, and these determinations were made prior to and after the treatment with at least 3 doses of the test substances which were administered orally in a 2 % methyl-cellulose-mucic by means of a probe. […] In this manner, not only the intensity but also the duration of the effect were taken into consideration when determining the ED50 since the analgesia must be sustained for at least 90 minutes.

[3] = Overall analgetic effect and compatability [sic]; conditions: in vivo
[4] = Acute oral toxicity in the mouse (LD50, 7-day observation); format: in vivo; conditions: in vivo, read-out: Mean lethal dosage (LD50)
[5] = system: rat; format: in vivo
[6] = Acute oral toxicity in the rat (LD50); conditions: in vivo
[7] = system: mouse; assay: Acute oral toxicity in the mouse (LD50, 7-day observation); format: in vivo; conditions: Table I, relative to effective substance, 10080 min
[8] = po, 0.5 h, read-out: Writhing Test: mean effective dosage (ED50)
[9] = po, 1 h, read-out: Hot plate: mean effective dosage (ED50)
[10] = Table I, oral, LD10/ED90, relative to aminophenazone = 1,00
[11] = po, Table II, rat, p.o., relative to effective substance, read-out: Mean effective dosage (ED50), analgetic effect on rats
[12] = Table I, relative to effective substance
[13] = Table IV, rat, oral, read-out: Mean effective dosage (ED50), electrical stimulation of root of the tail (HERZ)
[14] = Table IV, oral, LD10/ED90, relative to aminophenazone = 1.00

## Br.c1ccc2c(OCCN3CCOCC3)n[nH]c2c1 [3-(β-morpholino-ethoxy)-1H-indazole-hydrobromide]
[1]; [8]
  ED50: 46 mg/kg
[1]; [9]
  ED50: 142 mg/kg
[1]; [10]
  Hot plate: relative therapeutic index (Th.I.): 3,53
  Writhing Test: relative therapeutic index (Th.I.): 1,30
[2]; Table II, rat, p.o.
  Relative effectivity, relative to aminophenazone = 1.00: 6.84
[2]; [11]
  ED50: 34 mg/kg
[3]
  analgetic activity (in words): Analgetically particularly active
[4]; [12]
  LD50 at 168 h: 615 mg/kg

## c1ccc2c(OCCN3CCOCC3)n[nH]c2c1 [3-(β-morpholino-ethoxy)-1H-indazole]
[3]
  analgetic activity (in words): Analgetically particularly active

## Br.C1CCc2c(n[nH]c2OCCN2CCOCC2)C1 [3-(β-morpholino-ethoxy)-4,5,6,7-tetrahydro-2H-indazole-hydrobromide]
[3]
  analgetic activity (in words): Analgetically particularly active

## C1CCc2c(n[nH]c2OCCN2CCOCC2)C1 [3-(β-morpholino-ethoxy)-4,5,6,7-tetrahydro-2H-indazole]
[1]; [8]
  ED50: 94 mg/kg
[1]; [9]
  ED50: 540 mg/kg
[1]; in vivo, po
  Hot plate: relative therapeutic index (Th.I.): 2.67
  Writhing Test: relative therapeutic index (Th.I.): 2.07
[2]; [13]
  ED50: 143 mg/kg
[5]; [14]
  relative therapeutic index: 1.62
[6]
  LD50: 1600 mg/kg
[4]; Table III
  LD50 at 168 h: 1720 mg/kg

## c1ccc2c(OCCCN3CCOCC3)n[nH]c2c1 [3-(γ-morpholino-propoxy)-1H-indazole]
[3]
  analgetic activity (in words): Analgetically particularly active

## CC(=O)Oc1ccccc1C(=O)O [acetylsalicylate]
[1]; [8]
  ED50: 107 mg/kg
[1]; [9]
  ED50: 500 mg/kg
[1]; Table I, oral
  Writhing Test: mean effective dosage (ED50): 107 mg/kg body weight
  Hot plate: mean effective dosage (ED50): 500 mg/kg body weight
[1]; [10]
  Hot plate: relative therapeutic index (Th.I.): 1,67
  Writhing Test: relative therapeutic index (Th.I.): 0,80
[1]; in vivo, po
  Hot plate: relative therapeutic index (Th.I.): 1.88
  Writhing Test: relative therapeutic index (Th.I.): 0.91
[2]; Table II, rat, p.o.
  Relative effectivity, relative to aminophenazone = 1.00: 0.67
[2]; [13]
  ED50: 340 mg/kg
[5]; [14]
  relative therapeutic index: 0.28
[6]
  LD50: 1400 mg/kg
[7]
  Mean lethal dosage (LD50): 835 mg/kg body weight
[4]; Table III
  LD50 at 168 h: 835 mg/kg

## Cc1c(N(C)C)c(=O)n(-c2ccccc2)n1C [aminophenazone]
[1]; [8]
  ED50: 50 mg/kg
[1]; [9]
  ED50: 283 mg/kg
[1]; Table I, oral
  Writhing Test: mean effective dosage (ED50): 50 mg/kg body weight
  Hot plate: mean effective dosage (ED50): 283 mg/kg body weight
[1]; [10]
  Hot plate: relative therapeutic index (Th.I.): 1,00
  Writhing Test: relative therapeutic index (Th.I.): 1,00
[1]; in vivo, po
  Hot plate: relative therapeutic index (Th.I.): 1.00
  Writhing Test: relative therapeutic index (Th.I.): 1.00
[2]; Table II, rat, p.o.
  Relative effectivity, relative to aminophenazone = 1.00: 1.00
[2]; [13]
  ED50: 229 mg/kg
[5]; in vivo, po
  relative therapeutic index: 1.00
[6]
  LD50: 1350 mg/kg
[7]
  Mean lethal dosage (LD50): 550 mg/kg body weight
[4]; Table III
  LD50 at 168 h: 550 mg/kg

## COc1ccc2c3c1O[C@H]1[C@@H](O)C=C[C@H]4[C@@H](C2)N(C)CC[C@@]341 [codeine phosphate]
[1]; [8]
  ED50: 14 mg/kg
[1]; [9]
  ED50: 115 mg/kg
[1]; [10]
  Hot plate: relative therapeutic index (Th.I.): 1,49
  Writhing Test: relative therapeutic index (Th.I.): 1,92
[2]; Rattus norvegicus, po, read-out: Mean effective dosage (ED50), analgetic effect on rats
  ED50: 22 mg/kg
[2]; Table II, rat, p.o.
  Relative effectivity, relative to aminophenazone = 1.00: 10.50
[4]; [12]
  LD50 at 168 h: 265 mg/kg

## CCOc1ccc(NC(C)=O)cc1 [phenacetine]
[1]; [8]
  ED50: 107 mg/kg
[1]; [9]
  ED50: 530 mg/kg
[1]; Table I, oral
  Writhing Test: mean effective dosage (ED50): 107 mg/kg body weight
  Hot plate: mean effective dosage (ED50): 530 mg/kg body weight
[1]; [10]
  Hot plate: relative therapeutic index (Th.I.): 1,71
  Writhing Test: relative therapeutic index (Th.I.): 0,66
[1]; in vivo, po
  Hot plate: relative therapeutic index (Th.I.): 1.93
  Writhing Test: relative therapeutic index (Th.I.): 0.74
[2]; Table II, rat, p.o.
  Relative effectivity, relative to aminophenazone = 1.00: 1.86
[2]; [11]
  ED50: 123 mg/kg
[7]
  Mean lethal dosage (LD50): 1250 mg/kg body weight
[4]; Table III
  LD50 at 168 h: 1250 mg/kg
